Source: patent publication US12509453B2, “BRM/BRG1 inhibitors and uses thereof” (Foghorn Therapeutics Inc., priority 2019, dated 2025)

Key:
BRG-1 = molecular target: T1, BRG-1 (Homo sapiens, UniProt P51532); assay: ATPase catalytic activity assay (ADP-Glo), BRG-1; format: biochemical; conditions: 30 nM BRG-1, 400 μM ATP; for IC50: 20 nM salmon sperm DNA, read-out: BRG1 IP50 (μM)*; for Emax: read-out: BRG1 Max % Inhibition
T1 construct: made in house; host or cells: High Five insect cells
Protocol: (§1) The ATPase catalytic activity of BRM or BRG-1 was measured by the in vitro biochemical assay using ADP-Glo™ (Promega, V9102). The ADP-Glo™ kinase assay is performed in two steps once the reaction is complete. The first step is to deplete any unconsumed ATP in the reaction. The second step is to convert the reaction product ADP to ATP, which will be utilized by the luciferase to generate luminesce and be detected by a luminescence reader, such as Envision.
(§2) The assay reaction mixture (10 μL) contains 30 nM of BRM or BRG-1, 20 nM salmon sperm DNA (from Invitrogen, UltraPure™ Salmon Sperm DNA Solution, cat #15632011), and 400 μM of ATP in the ATPase assay buffer, which comprises of 20 mM Tris, pH 8, 20 mM MgCl2, 50 mM NaCl, 0.1% Tween-20, and 1 mM fresh DTT (Pierce™ DTT (Dithiothreitol), cat #20290). The reaction is initiated by the addition of the 2.5 μL ATPase solution to 2.5 μL ATP/DNA solution on low volume white Proxiplate-384 plus plate (PerkinElmer,cat #6008280) and incubates at room temperature for 1 hour. Then following addition of 5 μL of ADP-Glo™ Reagent provided in the kit, the reaction incubates at room temperature for 40 minutes. Then 10 μL of Kinase Detection Reagent provided in the kit is added to convert ADP to ATP, and the reaction incubates at room temperature for 60 minutes. Finally, luminescence measurement is collected with a plate-reading luminometer, such as Envision.
as §1, with “The” for “The ATPase catalytic activity of BRM or BRG-1 was measured by the in vitro biochemical assay using ADP-Glo™ (Promega, V9102). The”
as §2, with “BRG1,” for “BRG-1,”

BRM = molecular target: T2, BRM (Homo sapiens, UniProt P51531); assay: ATPase catalytic activity assay (ADP-Glo), BRM; format: biochemical; conditions: 30 nM BRM, 400 μM ATP; for IC50: 20 nM salmon sperm DNA, read-out: BRM IP50 (μM)*
T2 construct: made in house; host or cells: High Five insect cells
T2 sequence (P51531 whole entry): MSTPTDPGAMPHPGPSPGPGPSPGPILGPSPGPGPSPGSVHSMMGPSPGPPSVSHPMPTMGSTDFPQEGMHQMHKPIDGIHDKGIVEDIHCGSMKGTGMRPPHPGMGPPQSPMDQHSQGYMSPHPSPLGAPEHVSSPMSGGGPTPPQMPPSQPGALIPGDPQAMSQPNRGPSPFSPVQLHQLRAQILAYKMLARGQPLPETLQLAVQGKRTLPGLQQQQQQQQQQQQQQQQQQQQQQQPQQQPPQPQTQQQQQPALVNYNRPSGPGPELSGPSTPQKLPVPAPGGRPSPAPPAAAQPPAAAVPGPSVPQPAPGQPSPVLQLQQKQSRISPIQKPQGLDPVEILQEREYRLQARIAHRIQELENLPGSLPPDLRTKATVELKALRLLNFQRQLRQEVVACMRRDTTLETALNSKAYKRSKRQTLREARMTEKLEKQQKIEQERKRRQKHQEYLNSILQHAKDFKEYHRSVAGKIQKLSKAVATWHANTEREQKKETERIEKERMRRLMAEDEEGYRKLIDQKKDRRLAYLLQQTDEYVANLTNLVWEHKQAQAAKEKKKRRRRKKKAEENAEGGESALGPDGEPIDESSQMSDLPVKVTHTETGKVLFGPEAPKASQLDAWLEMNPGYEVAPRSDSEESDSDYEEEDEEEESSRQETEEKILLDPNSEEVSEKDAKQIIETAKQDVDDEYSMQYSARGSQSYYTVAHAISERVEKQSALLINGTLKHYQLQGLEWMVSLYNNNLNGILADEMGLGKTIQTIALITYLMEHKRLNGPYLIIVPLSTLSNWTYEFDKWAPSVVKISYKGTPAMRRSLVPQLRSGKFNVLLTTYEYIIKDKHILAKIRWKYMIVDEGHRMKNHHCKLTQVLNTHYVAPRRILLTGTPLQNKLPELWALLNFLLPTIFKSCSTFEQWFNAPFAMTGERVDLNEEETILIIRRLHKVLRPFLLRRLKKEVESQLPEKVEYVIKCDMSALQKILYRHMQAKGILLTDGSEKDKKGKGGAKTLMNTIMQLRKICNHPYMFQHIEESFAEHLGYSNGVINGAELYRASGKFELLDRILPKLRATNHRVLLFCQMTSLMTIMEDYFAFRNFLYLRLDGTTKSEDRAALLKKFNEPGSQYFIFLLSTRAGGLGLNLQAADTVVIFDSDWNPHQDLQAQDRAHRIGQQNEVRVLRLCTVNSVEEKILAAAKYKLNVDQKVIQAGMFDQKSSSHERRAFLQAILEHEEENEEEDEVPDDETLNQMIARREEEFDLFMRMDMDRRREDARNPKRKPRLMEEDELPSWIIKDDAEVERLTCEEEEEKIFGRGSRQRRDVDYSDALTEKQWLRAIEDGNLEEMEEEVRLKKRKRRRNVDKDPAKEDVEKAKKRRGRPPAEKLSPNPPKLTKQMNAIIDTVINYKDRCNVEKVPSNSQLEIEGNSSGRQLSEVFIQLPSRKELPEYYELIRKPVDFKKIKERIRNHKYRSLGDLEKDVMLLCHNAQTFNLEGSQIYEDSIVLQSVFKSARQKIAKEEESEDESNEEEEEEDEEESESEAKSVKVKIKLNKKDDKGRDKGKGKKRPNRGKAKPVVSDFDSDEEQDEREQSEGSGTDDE
Protocol: as §1, §2
as §1, with “The” for “The ATPase catalytic activity of BRM or BRG-1 was measured by the in vitro biochemical assay using ADP-Glo™ (Promega, V9102). The”
as §2, with “BRG1,” for “BRG-1,”

T1 sequence (P51532 whole entry): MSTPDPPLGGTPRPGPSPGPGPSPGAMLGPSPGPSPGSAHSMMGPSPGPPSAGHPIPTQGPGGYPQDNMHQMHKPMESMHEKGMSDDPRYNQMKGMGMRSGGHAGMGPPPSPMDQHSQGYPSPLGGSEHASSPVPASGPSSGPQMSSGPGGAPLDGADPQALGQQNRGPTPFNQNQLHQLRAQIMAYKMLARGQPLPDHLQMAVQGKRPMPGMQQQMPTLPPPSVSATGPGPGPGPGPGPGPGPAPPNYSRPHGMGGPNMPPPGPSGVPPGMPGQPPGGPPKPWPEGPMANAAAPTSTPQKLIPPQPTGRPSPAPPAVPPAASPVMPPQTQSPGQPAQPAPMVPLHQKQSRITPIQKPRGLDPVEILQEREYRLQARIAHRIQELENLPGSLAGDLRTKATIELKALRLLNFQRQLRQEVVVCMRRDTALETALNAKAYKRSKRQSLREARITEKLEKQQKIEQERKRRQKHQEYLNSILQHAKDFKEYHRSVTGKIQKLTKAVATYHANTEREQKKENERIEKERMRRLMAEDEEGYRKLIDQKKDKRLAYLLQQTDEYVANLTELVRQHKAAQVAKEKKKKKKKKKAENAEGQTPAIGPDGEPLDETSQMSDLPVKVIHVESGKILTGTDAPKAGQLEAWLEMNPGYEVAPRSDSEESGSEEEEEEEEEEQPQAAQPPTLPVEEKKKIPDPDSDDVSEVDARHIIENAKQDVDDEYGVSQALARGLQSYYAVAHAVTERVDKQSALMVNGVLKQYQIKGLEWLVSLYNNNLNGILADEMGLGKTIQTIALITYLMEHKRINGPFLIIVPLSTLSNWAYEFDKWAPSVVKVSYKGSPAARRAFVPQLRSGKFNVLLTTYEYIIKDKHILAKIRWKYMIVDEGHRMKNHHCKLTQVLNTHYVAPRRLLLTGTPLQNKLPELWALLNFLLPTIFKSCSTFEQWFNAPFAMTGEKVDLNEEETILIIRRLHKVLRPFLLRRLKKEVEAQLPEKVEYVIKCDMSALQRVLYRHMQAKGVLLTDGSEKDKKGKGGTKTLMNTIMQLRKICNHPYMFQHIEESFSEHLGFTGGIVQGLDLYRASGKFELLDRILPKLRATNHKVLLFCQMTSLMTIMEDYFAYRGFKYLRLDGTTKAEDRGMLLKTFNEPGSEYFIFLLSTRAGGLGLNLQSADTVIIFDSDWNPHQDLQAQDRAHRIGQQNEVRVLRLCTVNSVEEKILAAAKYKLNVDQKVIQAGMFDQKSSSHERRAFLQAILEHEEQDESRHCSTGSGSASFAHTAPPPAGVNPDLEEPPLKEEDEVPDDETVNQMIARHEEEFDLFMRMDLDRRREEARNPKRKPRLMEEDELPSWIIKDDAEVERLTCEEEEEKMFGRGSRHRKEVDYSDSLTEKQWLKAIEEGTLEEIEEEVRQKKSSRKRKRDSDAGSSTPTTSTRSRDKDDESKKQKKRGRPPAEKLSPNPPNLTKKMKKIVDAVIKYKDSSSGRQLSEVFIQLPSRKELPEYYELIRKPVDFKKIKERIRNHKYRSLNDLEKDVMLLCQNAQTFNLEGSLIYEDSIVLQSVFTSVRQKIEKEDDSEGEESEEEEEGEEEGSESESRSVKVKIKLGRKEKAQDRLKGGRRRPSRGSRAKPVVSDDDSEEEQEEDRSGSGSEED

| Structure (SMILES) | IC50 (BRG-1) [µM] | Emax (BRG-1) [%] | BRM Max % Inhibition (BRM) [%] | IC50 (BRM) [µM] |
| --- | --- | --- | --- | --- |
| Cc1cc(-c2cccc(-c3csc(NC(=O)CNC(=O)c4cc(Cl)n(S(=O)(=O)C(C)C)c4)n3)n2)ncn1 [Compound 27, 5-chloro-1-(isopropylsulfonyl)-N-(2-((4-(6-(6-methylpyrimidin-4-yl)pyridin-2-yl)thiazol-2-yl)amino)-2-oxoethyl)-1H-pyrrole-3-carboxamide] | 0.1 to 1 | > 60 | >80 | 0.1 to 1 |
| Cc1c(C(=O)NCC(=O)Nc2nc(-c3cccc(-c4ccncc4)c3)cs2)cn(S(=O)(=O)C(C)C)c1C [Compound 10, 1-(isopropylsulfonyl)-4,5-dimethyl-N-(2-oxo-2-((4-(3-(pyridin-4-yl)phenyl)thiazol-2-yl)amino)ethyl)-1H-pyrrole-3-carboxamide] | > 5 | < 30 | >70 | 0.1 to 1 |
| Cc1cc(-c2cccc(-c3csc(NC(=O)CNC(=O)c4cn(S(=O)(=O)C(C)C)c(C)c4C)n3)c2)nc(C)n1 [Compound 14] | 0.1 to 1 | > 90 | >95 | < 0.1 |
| Cc1cc(-c2cccc(-c3csc(NC(=O)CNC(=O)c4cc(Cl)n(S(=O)(=O)C(C)C)c4)n3)c2)nc(C)n1 [Compound 32, 5-chloro-N-(2-((4-(3-(2,6-dimethylpyrimidin-4-yl)phenyl)thiazol-2-yl)amino)-2-oxoethyl)-1-(isopropylsulfonyl)-1H-pyrrole-3-carboxamide] | 0.1 to 1 | > 90 | >95 | < 0.1 |
| CS(=O)(=O)n1cc(C(=O)NCC(=O)Nc2nc(-c3cccc(-c4ccncc4)c3)cs2)c2ccncc21 [Compound 2, 1-(methylsulfonyl)-N-(2-oxo-2-((4-(3-(pyridin-4-yl)phenyl)thiazol-2-yl)amino)ethyl)-1H-pyrrolo[2,3-c]pyridine-3-carboxamide] | 1 to 5 | > 70 | >80 | 0.1 to 1 |
| CS(=O)(=O)n1cc(C(=O)NCC(=O)Nc2nc(-c3cccc(-c4ccncc4)c3)cs2)c2ncccc21 [Compound 3, 1-(methylsulfonyl)-N-(2-oxo-2-((4-(3-(pyridin-4-yl)phenyl)thiazol-2-yl)amino)ethyl)-1H-pyrrolo[3,2-b]pyridine-3-carboxamide] | > 5 | > 40 | >40 | > 5 |
| Cc1cc(-c2cccc(-c3csc(NC(=O)CNC(=O)c4cc(CO)n(S(=O)(=O)C(C)C)c4)n3)c2)cc(C)n1 [Compound 25, N-(2-((4-(3-(2,6-dimethylpyridin-4-yl)phenyl)thiazol-2-yl)amino)-2-oxoethyl)-5-(hydroxymethyl)-1-(isopropylsulfonyl)-1H-pyrrole-3-carboxamide] | 0.1 to 1 | > 80 | >95 | < 0.1 |
| Cc1cc(-c2cccc(-c3csc(NC(=O)CNC(=O)c4cn(S(=O)(=O)C(C)C)c5ccccc45)n3)c2)cc(C)n1 [Compound 34, N-(2-((4-(3-(2,6-dimethylpyridin-4-yl)phenyl)thiazol-2-yl)amino)-2-oxoethyl)-1-(isopropylsulfonyl)-1H-indole-3-carboxamide] | 1 to 5 | > 60 | >90 | < 0.1 |
| Cc1nccc(-c2cccc(-c3csc(NC(=O)CNC(=O)c4cn(S(=O)(=O)C(C)C)c(C)c4C)n3)c2)n1 [Compound 17] | 0.1 to 1 | > 80 | >95 | < 0.1 |
| Cc1nccc(-c2cccc(-c3csc(NC(=O)CNC(=O)c4cc(Cl)n(S(=O)(=O)C(C)C)c4)n3)c2)n1 [Compound 41, 5-chloro-1-isopropylsulfonyl-N-[2-[[4-[3-(2-methylpyrimidin-4-yl)phenyl]thiazol-2-yl]amino]-2-oxo-ethyl]pyrrole-3-carboxamide] | 0.1 to 1 | > 90 | >95 | < 0.1 |
| CS(=O)(=O)n1cc(C(=O)NCC(=O)Nc2nc(-c3cccc(-c4ccncc4)c3)cs2)c2ccccc21 [Compound 1, 1-(methylsulfonyl)-N-(2-oxo-2-((4-(3-(pyridin-4-yl)phenyl)thiazol-2-yl)amino)ethyl)-1H-indole-3-carboxamide] | > 5 | < 30 | >70 | 0.1 to 1 |
| Cc1cc(C(=O)NCC(=O)Nc2nc(-c3cccc(-c4ccn(C)n4)c3)cs2)cn1S(=O)(=O)C(C)C [Compound 6, 1-(isopropylsulfonyl)-5-methyl-N-(2-((4-(3-(1-methyl-1H-pyrazol-3-yl)phenyl)thiazol-2-yl)amino)-2-oxoethyl)-1H-pyrrole-3-carboxamide] | 1 to 5 | > 50 | >90 | 0.1 to 1 |

Next, values leading:

| IC50 (BRG-1) [µM] | Emax (BRG-1) [%] | BRM Max % Inhibition (BRM) [%] | IC50 (BRM) [µM] | Structure (SMILES) |
| --- | --- | --- | --- | --- |
| 1 to 5 | > 60 | >90 | 0.1 to 1 | C[C@@H]1CN(c2cccc(-c3csc(NC(=O)CNC(=O)c4cn(S(C)(=O)=O)c5ccccc45)n3)c2)C[C@H](C)O1 [Compound 26, N-(2-((4-(3-((cis)-2,6-dimethylmorpholino)phenyl)thiazol-2-yl)amino)-2-oxoethyl)-1-(methylsulfonyl)-1H-indole-3-carboxamide] |
| 1 to 5 | > 40 | >80 | 0.1 to 1 | CC(C)S(=O)(=O)n1cc(C(=O)NCC(=O)Nc2nc(-c3cccc(N4C[C@@H](C)O[C@@H](C)C4)n3)cs2)cc1Cl [Compound 37, 5-chloro-N-(2-((4-(6-((cis)-2,6-dimethylmorpholino)pyridin-2-yl)thiazol-2-yl)amino)-2-oxoethyl)-1-(isopropylsulfonyl)-1H-pyrrole-3-carboxamide] |
| 0.1 to 1 |  |  | < 0.1 | C[C@@H]1CN(c2cccc(-c3csc(NC(=O)CNC(=O)c4cnn(C(C)(C)C)c4Cl)n3)c2)C[C@H](C)O1 [Compound 43, 1-(tert-butyl)-5-chloro-N-(2-((4-(3-((2R,6S)-2,6-dimethylmorpholino)phenyl)thiazol-2-yl)amino)-2-oxoethyl)-1H-pyrazole-4-carboxamide] |
| > 5 | < 30 | >80 | 0.1 to 1 | CC(C)S(=O)(=O)n1cc(C(=O)NCC(=O)Nc2nc(-c3cccc(N4C[C@@H](C)O[C@@H](C)C4)c3)cs2)c2ccccc21 [Compound 31, N-(2-((4-(3-((cis)-2,6-dimethylmorpholino)phenyl)thiazol-2-yl)amino)-2-oxoethyl)-1-(isopropylsulfonyl)-1H-indole-3-carboxamide] |
| 0.1 to 1 | > 70 | >95 | 0.1 to 1 | Cc1cc(C(=O)NCC(=O)Nc2nc(-c3cccc(N4C[C@@H](C)O[C@@H](C)C4)c3)cs2)cn1S(=O)(=O)C(C)C [Compound 8, N-(2-((4-(3-((2S,6R)-2,6-dimethylmorpholino)phenyl)thiazol-2-yl)amino)-2-oxoethyl)-1-(isopropylsulfonyl)-5-methyl-1H-pyrrole-3-carboxamide] |
| < 0.1 |  |  | < 0.1 | C[C@@H]1CN(c2cccc(-c3csc(NC(=O)CNC(=O)c4cc(Cl)n(S(C)(=O)=O)c4)n3)c2)C[C@H](C)O1 [Compound 44, 5-chloro-N-(2-((4-(3-((2R,6S)-2,6-dimethylmorpholino)phenyl)thiazol-2-yl)amino)-2-oxoethyl)-1-(methylsulfonyl)-1H-pyrrole-carboxamide] |
